From ChEMBL document CHEMBL5506007, “Structure-based discovery of potent CARM1 inhibitors for colorectal cancer therapy” (Eur J Med Chem, 2024)

What was measured:
[1] = target: T1, Histone-arginine methyltransferase CARM1 (Homo sapiens, UniProt Q86X55); test: Inhibition of CARM1 (unknown origin)
T1 sequence (Q86X55 whole entry): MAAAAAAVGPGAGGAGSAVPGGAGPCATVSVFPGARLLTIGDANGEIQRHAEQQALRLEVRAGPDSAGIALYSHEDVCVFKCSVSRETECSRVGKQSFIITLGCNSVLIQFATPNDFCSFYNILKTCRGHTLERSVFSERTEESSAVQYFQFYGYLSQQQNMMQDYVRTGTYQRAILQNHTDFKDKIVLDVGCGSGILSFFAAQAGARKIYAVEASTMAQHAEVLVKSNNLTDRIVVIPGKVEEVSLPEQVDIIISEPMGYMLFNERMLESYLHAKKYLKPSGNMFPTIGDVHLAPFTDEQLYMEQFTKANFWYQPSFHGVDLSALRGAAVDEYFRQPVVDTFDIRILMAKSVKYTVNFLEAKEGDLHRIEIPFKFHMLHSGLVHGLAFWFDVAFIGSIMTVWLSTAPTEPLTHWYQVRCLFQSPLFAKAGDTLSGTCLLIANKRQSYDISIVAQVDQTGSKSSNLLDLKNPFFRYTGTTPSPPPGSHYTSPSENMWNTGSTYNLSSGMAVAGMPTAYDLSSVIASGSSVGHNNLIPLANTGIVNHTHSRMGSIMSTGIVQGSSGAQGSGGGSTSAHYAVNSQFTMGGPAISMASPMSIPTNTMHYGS

[2] = target: Protein arginine N-methyltransferase 3 (Homo sapiens, UniProt O60678); test: Inhibition of PRMT3 (unknown origin) by AlphaLISA assay
[3] = target: T2, Protein arginine N-methyltransferase 8 (Homo sapiens, UniProt Q9NR22); test: Inhibition of PRMT8 (unknown origin) by AlphaLISA assay
[4] = target: Protein arginine N-methyltransferase 5 (Homo sapiens, UniProt O14744); test: Inhibition of PRMT5 (unknown origin) by AlphaLISA assay
in vitro [5] = conditions: mouse, liver microsomes
Description: Metabolic stability in mouse liver microsomes assessed as microsomal intrinsic clearance by LC-MS/MS analysis

[6] = target: T3, Protein arginine N-methyltransferase 6 (Homo sapiens, UniProt Q96LA8); test: Inhibition of PRMT6 (unknown origin) by AlphaLISA assay
[7] = target: Protein arginine N-methyltransferase 1 (Homo sapiens, UniProt Q99873); test: Inhibition of PRMT1 (unknown origin) by AlphaLISA assay
HCT-116 [8] = test: Potency index, ratio of GSK3368715 IC50 to test compound IC50 for antiproliferative activity against human HCT-116 cells assessed as inhibition of cell growth by CCK-8 assay; type: functional
in vitro [9] = conditions: mouse, liver microsomes; remark: listed apart in the source
Description: Metabolic stability in mouse liver microsomes assessed as intrinsic clearance by LC-MS/MS analysis

HCT-116 [10] = test: Antiproliferative activity against human HCT-116 cells assessed as inhibition of cell growth by CCK-8 assay; type: functional, cell-based
in vitro [11] = conditions: mouse, liver microsomes; remark: listed apart in the source
Description: Metabolic stability in mouse liver microsomes assessed as half life by LC-MS/MS analysis

[12] = target: T1, Histone-arginine methyltransferase CARM1; test: Inhibition of CARM1 (unknown origin) using histone H3 (21 to 44 residues) and SAM as substrates by AlphaLISA assay
[13] = target: T2, Protein arginine N-methyltransferase 8; test: Inhibition of PRMT8 (unknown origin) using SAM and Histone (1 to 21 residues) as substrate preincubated for 60 mins followed by substrate addition and measured after 40 mins by Topcount reader based analysis
[14] = target: T3, Protein arginine N-methyltransferase 6; test: Inhibition of N-terminal His tagged human recombinant PRMT6 (2 to 375 residues) expressed in Escherichia coli using SAM and Histone (1 to 21 residues) as substrate preincubated for 60 mins followed by substrate addition and measured after 40 mins by Topcount reader based analysis
[15] = target: T1, Histone-arginine methyltransferase CARM1; test: Inhibition of N-terminal FLAG tagged human PRMT4 (2 to end residues) expressed in FreeStyle 293-F cells using SAM and rHistone H3.1 as substrate preincubated for 60 mins followed by substrate addition and measured after 40 mins by Topcount reader based analysis
HCT-116 [16] = test: Induction of apoptosis in human HCT-116 cells assessed as late apoptotic cells at 1.25 uM measured after 72 hrs by Annexin V-FITC/PI staining based flow cytometry analysis (reference value: 1.53%); type: functional
HCT-116 [17] = test: Induction of apoptosis in human HCT-116 cells assessed as late apoptotic cells at 0.63 uM measured after 72 hrs by Annexin V-FITC/PI staining based flow cytometry analysis (reference value: 1.53%); type: functional
HCT-116 [18] = test: Induction of apoptosis in human HCT-116 cells assessed as dead cells at 2.5 uM measured after 72 hrs by Annexin V-FITC/PI staining based flow cytometry analysis (reference value: 1.07%); type: functional
HCT-116 [19] = test: Induction of apoptosis in human HCT-116 cells assessed as late apoptotic cells at 5 uM measured after 72 hrs by Annexin V-FITC/PI staining based flow cytometry analysis (reference value: 1.53%); type: functional
HCT-116 [20] = test: Induction of apoptosis in human HCT-116 cells assessed as dead cells at 0.63 uM measured after 72 hrs by Annexin V-FITC/PI staining based flow cytometry analysis (reference value: 1.07%); type: functional
HCT-116 [21] = test: Induction of apoptosis in human HCT-116 cells assessed as late apoptotic cells at 2.5 uM measured after 72 hrs by Annexin V-FITC/PI staining based flow cytometry analysis (reference value: 1.53%); type: functional
HCT-116 [22] = test: Induction of apoptosis in human HCT-116 cells assessed as dead cells at 5 uM measured after 72 hrs by Annexin V-FITC/PI staining based flow cytometry analysis (reference value: 1.07%); type: functional
HCT-116 [23] = test: Induction of apoptosis in human HCT-116 cells assessed as dead cells at 1.25 uM measured after 72 hrs by Annexin V-FITC/PI staining based flow cytometry analysis (reference value: 1.07%); type: functional

T2 sequence (Q9NR22 whole entry): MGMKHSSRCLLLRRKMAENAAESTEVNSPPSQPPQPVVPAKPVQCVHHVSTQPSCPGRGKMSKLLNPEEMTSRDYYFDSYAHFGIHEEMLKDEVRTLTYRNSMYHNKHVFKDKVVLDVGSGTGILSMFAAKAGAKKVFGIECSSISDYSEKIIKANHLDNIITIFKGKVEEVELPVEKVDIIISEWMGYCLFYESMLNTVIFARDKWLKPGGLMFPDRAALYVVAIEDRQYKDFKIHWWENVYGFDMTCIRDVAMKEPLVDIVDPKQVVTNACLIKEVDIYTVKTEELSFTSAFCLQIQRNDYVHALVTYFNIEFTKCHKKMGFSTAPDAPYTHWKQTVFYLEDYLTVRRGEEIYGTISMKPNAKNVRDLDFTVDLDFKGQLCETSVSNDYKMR
T3 sequence (Q96LA8 whole entry): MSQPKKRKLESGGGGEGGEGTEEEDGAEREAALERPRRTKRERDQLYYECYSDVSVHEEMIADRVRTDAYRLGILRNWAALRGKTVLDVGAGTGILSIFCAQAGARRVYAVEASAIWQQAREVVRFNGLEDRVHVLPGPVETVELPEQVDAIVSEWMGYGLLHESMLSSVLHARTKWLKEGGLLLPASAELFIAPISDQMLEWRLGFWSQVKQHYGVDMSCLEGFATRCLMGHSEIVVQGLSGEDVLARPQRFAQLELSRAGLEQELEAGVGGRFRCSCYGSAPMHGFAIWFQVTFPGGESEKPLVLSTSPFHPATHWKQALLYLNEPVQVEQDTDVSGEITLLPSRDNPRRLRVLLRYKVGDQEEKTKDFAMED
Chain of Protein arginine N-methyltransferase 1 (Q99873 whole entry): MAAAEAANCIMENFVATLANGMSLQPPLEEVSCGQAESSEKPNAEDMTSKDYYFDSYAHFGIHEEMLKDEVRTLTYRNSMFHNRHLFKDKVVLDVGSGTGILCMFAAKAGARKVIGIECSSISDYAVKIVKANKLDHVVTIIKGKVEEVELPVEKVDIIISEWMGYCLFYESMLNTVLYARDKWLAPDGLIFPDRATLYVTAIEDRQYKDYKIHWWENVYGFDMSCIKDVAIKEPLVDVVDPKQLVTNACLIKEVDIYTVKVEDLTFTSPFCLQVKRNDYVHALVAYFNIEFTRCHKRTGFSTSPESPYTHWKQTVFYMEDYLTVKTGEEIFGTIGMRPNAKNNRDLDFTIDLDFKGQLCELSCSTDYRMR
Chain of Protein arginine N-methyltransferase 5 (O14744 whole entry): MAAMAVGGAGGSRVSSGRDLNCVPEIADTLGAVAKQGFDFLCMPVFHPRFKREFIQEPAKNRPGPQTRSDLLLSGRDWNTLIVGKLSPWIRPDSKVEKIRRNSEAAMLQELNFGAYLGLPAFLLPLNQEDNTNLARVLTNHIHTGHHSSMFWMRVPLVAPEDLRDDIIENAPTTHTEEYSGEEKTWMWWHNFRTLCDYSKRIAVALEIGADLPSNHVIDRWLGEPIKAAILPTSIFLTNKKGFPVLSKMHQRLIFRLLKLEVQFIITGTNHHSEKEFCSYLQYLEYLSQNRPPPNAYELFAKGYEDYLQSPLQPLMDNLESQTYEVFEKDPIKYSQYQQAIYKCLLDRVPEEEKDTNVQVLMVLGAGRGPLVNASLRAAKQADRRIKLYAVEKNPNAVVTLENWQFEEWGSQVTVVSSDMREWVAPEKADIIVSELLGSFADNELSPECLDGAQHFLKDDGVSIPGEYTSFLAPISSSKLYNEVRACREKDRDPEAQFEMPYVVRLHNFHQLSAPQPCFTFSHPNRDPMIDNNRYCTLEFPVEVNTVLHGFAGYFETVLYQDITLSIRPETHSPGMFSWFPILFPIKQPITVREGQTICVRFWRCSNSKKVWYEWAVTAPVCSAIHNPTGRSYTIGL
Chain of Protein arginine N-methyltransferase 3 (O60678 whole entry): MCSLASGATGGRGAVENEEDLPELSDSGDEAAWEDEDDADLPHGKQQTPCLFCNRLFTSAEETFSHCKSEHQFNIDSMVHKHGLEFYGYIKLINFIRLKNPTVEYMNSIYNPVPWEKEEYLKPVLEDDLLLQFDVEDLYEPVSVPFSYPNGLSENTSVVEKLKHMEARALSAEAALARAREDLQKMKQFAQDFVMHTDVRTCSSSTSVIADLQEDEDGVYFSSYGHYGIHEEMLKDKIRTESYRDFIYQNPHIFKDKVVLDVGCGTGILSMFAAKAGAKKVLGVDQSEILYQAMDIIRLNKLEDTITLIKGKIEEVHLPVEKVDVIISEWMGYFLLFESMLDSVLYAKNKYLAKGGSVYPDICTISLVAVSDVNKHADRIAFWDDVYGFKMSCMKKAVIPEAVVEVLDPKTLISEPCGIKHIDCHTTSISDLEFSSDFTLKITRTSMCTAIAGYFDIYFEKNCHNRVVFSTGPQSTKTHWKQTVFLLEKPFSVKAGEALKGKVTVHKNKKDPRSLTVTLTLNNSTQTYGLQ

IC50 [7]	IC50 (HCT-116 [10])	IC50 [12]	Compound	IC50 [2]	IC50 [3]	IC50 [4]	microsomal CLint (in vitro [5])	IC50 [6]	Ratio IC50 (HCT-116 [8])	CLint scaled (in vitro [9])	half-life (in vitro [11])	other results
			CNCCN1CCC(c2ccc3c(F)c(-c4ccccc4OC)[nH]c3c2)CC1									IC50 [1]: 30 nM
56 nM	2960 nM	7 nM	CNCCN(C)Cc1ccccc1OC1CCC(COC)(COC)CC1.Cl.Cl	493 nM	24 nM	> 100000 nM	30.4 µL/min/mg	12 nM	>10	120 mL/min/kg	0.76 h	
	38200 nM	12 nM	CCOCC1(COCC)CCC(c2n[nH]cc2CN(C)CCNC)CC1									IC50 [13]: 1.7 nM; IC50 [14]: 1.7 nM; IC50 [15]: 1.7 nM
281 nM		37 nM	CCOCC1(COCC)CCC(Oc2ccccc2CN(C)C[C@H](O)CNC)CC1									

Compound	IC50 [7]	IC50 (HCT-116 [10])	IC50 [12]	IC50 [2]	IC50 [3]	IC50 [4]	microsomal CLint (in vitro [5])	IC50 [6]	Ratio IC50 (HCT-116 [8])	CLint scaled (in vitro [9])	half-life (in vitro [11])	other results
CCOCC1(COCC)CCC(Oc2ccccc2CN(C)C[C@@H](O)CNC)CC1	56 nM	3130 nM	9 nM	2640 nM	31 nM	> 100000 nM	6.4 µL/min/mg	10 nM	>10	25.3 mL/min/kg	3.62 h	Activity (HCT-116 [16]): 1.09%; Activity (HCT-116 [17]): 0.87%; Activity (HCT-116 [18]): 1.52%; Activity (HCT-116 [19]): 1.3%; Activity (HCT-116 [20]): 1.32%; Activity (HCT-116 [21]): 2.13%; Activity (HCT-116 [22]): 2.14%; Activity (HCT-116 [23]): 1.83%
